Measured values published in patent US20210002725A1, “METHODS FOR THE DIAGNOSIS OF METABOLIC DISORDERS USING EPIMETABOLIC SHIFTERS, MULTIDIMENSIONAL INTRACELLULAR MOLECULES, OR ENVIRONMENTAL INFLUENCES” (Berg LLC, priority 2009, published 2021).

Columns and labels:
SCC cells = assay: Real-time PCR Heat Shock Protein Array; type: cell-based; settings: 100 μM Q10
From the text: The control cells were untreated cells.
Heat Shock Arrays were run for SCC cells and the data of regulated genes is summarized below in Table 13.

[1] = test system: HepG2 (liver cancer) cells; assay: Real-time PCR Angiogenesis Array; type: cell-based
Description: The treatment was initiated on 1×10^5 cells per well, following the procedure utilized in the PaCa2 cells (above Examples 9-11). However, the total amount of RNA that was extracted from these samples was lower than expected. Reverse transcription is normally done using 1 μg of total RNA (determined by measurement at 260 nm).

Hif1 alpha = assay: Western blot of Hif1 alpha levels in cells treated with Coenzyme Q10; type: cell-based, human; settings: whole cell lysates of normal cells
Description: The Actin blots were stripped by incubating for 30 minutes with methanol, followed by two 10 minute washes with TBS-T, then 30 minutes of incubation with Stripping buffer at 50 deg C., and followed by two washes with 100 ml or more of TBS-T for 30′ each. The blots were scanned in laser scanner to check for complete stripping. The blots were activated with methanol for 5 seconds, washed with water for 5 minutes, and TBST for 15 minutes. The blots were blocked for 1 hour with 5% blocking reagent in TBS-T at room temperature and then washed 3 times with TBS-T (1×-15′; 2×5′ each) and probed with the primary antibody for Hif 1 alpha, Caspase 3 or PDHB in 5% BSA (at 1:200 by incubation overnight at 4 deg C. with gentle shaking. The primary antibody for Hif 1 alpha (Abcam ab2185; antirabbit) was at 1:500 dilution in 5% BSA. The primary antibody for Caspase 3 (Santacruz sc7272; antirabbit) was at 1:200 dilution in 5% BSA. The primary antibody for Pyruvate Dehydrogenase beta (PDHB) (Novus Biologicals H00005162-M03; antimouse) was at 1:500 dilution in 5% BSA. After incubation with primary antibodies, the membranes were washed 3 times with TBS-T (1×-15′; 2×5′ each) and probed with the secondary antibody (PDHB antimouse; Hif 1a and Caspase 3 antirabbit; 1:10,000 dilution) for 1 h at room temperature. […]

HDFa cells = assay: SeaHorse XF analyzer OCR and ECAR; type: cell-based, human; settings: normoxic and hypoxic conditions, 5.5 mM and 22 mM glucose
From the text: Environmental influencers (e.g., MIMs or Epi-shifters) may also be identified by changes in cellular energetics. One example of the measurement of cellular energetics are the real-time measures of the consumption of molecular oxygen and/or the change in pH of the media of a cell culture. For example, the ability of a potential epi-shifter to modulate the metabolic state of a cell may be analyzed using, for example, the XF24 Analyzer (Seahorse, Inc.). This technology allows for real time detection of oxygen and pH changes in a monolayer of cells in order to evaluate the bioenergetics of a cell microenvironment. The XF24 Analyzer measures and compares the rates of oxygen consumption (OCR), which is a measure of aerobic metabolism, and extracellular acidification (ECAR), which is a measure of glycolysis, both key indicators of cellular energetics.
(SeaHorse Biosciences Inc, North Billerica, Mass.).
In this experiment, the OCR and extracellular acidification rate (ECAR) in normal cells lines were obtained in the presence and absence of CoQ10 to determine baseline values. It was observed that in its native nutrient environment, the basal OCR rates in normal cells lines are different, and are usually a function of the physiological roles of the cells in the body.
For example, one set of experiments were conducted using the non-cancerous cell line HDFa, which is a human adult dermal fibroblast cell line. Fibroblasts are cells that primarily synthesize and secrete extracellular matrix (ECM) components and collagen that form the structural framework (stroma) for tissues. In addition, fibroblasts are known to serve as tissue ambassadors of numerous functions such as wound healing and localized immnomodulation. Under normal physiological conditions, energy requirements in normal fibroblasts are met using a combination of glycolysis and oxidative phosphorylation—the glycolysis providing the necessary nutrients for synthesis of ECM.
FIGS. 29 and 30 describe the OCR in HDFa and HASMC cells grown in physiologically normal glucose (about 4.6 mM) and high glucose (hyperglycemic) conditions.

## COC1=C(OC)C(=O)C(C/C=C(\C)CC/C=C(\C)CC/C=C(\C)CC/C=C(\C)CC/C=C(\C)CC/C=C(\C)CC/C=C(\C)CC/C=C(\C)CC/C=C(\C)CCC=C(C)C)=C(C)C1=O [Q10, Coenzyme Q10]
SCC cells
  Regulation (mRNA) at 6 hours: Down regulated
  Regulation (mRNA) at 24 hours: Down regulated
[1]; 100 μM Q10, 16 hours
  ANGPTL3 upregulation over control: approximately 5.5 fold
  ANGPTL4 upregulation over control: ~3 fold
  CXCL1 upregulation over control: ~3 fold
  CXCL3 upregulation over control: ~3.2 fold
  CXCL5 upregulation over control: ~3 fold
  ENG upregulation over control: ~3 fold
  ID3 downregulation over control: approximately 5 fold
  MMP2 upregulation over control: approximately 1 fold
  TIMP3 upregulation over control: ~6.5 fold
[1]; 100 μM Q10, 48 hours
  ANGPTL3 upregulation over control: approximately 3.5 fold
  ANGPTL4 downregulation over control: approximately 1 fold
  CXCL1 upregulation over control: ~1.5 fold
  CXCL3 upregulation over control: ~3.175 fold
  CXCL5 downregulation over control: approximately 1 fold
  ENG upregulation over control: ~2 fold
  ID3 downregulation over control: ~2 fold
  MMP2 downregulation over control: ~18 fold
  TIMP3 upregulation over control: ~3 fold
Hif1 alpha
  Hif1a lower band: showed a decrease
HDFa cells
  ECAR values: minimal influence on ECAR values
